Reference: patent US5622933A, “Multiple branch peptide constructions for use against HIV” (priority 1993, dated 1997)
Like-named read-outs stand apart in the source and are kept apart here. Ends that are not written are not given here.

How the values were obtained:
[1] = tested on: HIV-1Lai; assay: Syncytia formation blockage (chronically infected cells + uninfected Molt-4 cells); format: cell-based; set-up: key: -: The presence of syncytia is indicated by + signs, allocated in approximate proportion to the quantities counted; The presence of syncytia is indicated by + signs, allocated in approximate proportion to the quantities counted; ++: The presence of syncytia is indicated by + signs, allocated in approximate proportion to the quantities counted; +++: The presence of syncytia is indicated by + signs, allocated in approximate proportion to the quantities counted; ++++: The presence of syncytia is indicated by + signs, allocated in approximate proportion to the quantities counted
Procedure: (§1) CEM or C8166 cells were chronically infected with HIV-1 Lai or HIV-2 Rod, or HIV-1MN, respectively. Infected cells (1×10^4) were incubated for 2 hours with various concentrations of MBPCs in 96-well plates. Uninfected Molt-4 cells (4×10^4) were then added in […]. Syncytia were counted after 18 hours at 37° C.

[2] = tested on: HIV-1MN; assay: as above; format: cell-based; set-up: key: -: The presence of syncytia is indicated by + signs, allocated in approximate proportion to the quantities counted; The presence of syncytia is indicated by + signs, allocated in approximate proportion to the quantities counted; ++: The presence of syncytia is indicated by + signs, allocated in approximate proportion to the quantities counted; +++: The presence of syncytia is indicated by + signs, allocated in approximate proportion to the quantities counted; ++++: The presence of syncytia is indicated by + signs, allocated in approximate proportion to the quantities counted
Procedure: as §1

[3] = tested on: HIV-2Rod; assay: as above; format: cell-based; set-up: key: -: The presence of syncytia is indicated by + signs, allocated in approximate proportion to the quantities counted; The presence of syncytia is indicated by + signs, allocated in approximate proportion to the quantities counted; ++: The presence of syncytia is indicated by + signs, allocated in approximate proportion to the quantities counted; +++: The presence of syncytia is indicated by + signs, allocated in approximate proportion to the quantities counted; ++++: The presence of syncytia is indicated by + signs, allocated in approximate proportion to the quantities counted
Procedure: as §1

[4] = tested on: HIV-1 (IIIB); format: cell-based; details: for number of syncytia (HIV-1 induced cell fusion): 24 hours
Description: 50×10^3 8E5 cells chronically infected with a RT-deficient HIV-I (IIIB) isolate, were co-cultivated with 150×10^3 phytohemagglutinin (PHA) stimulated human peripheral blood lymphocytes (PBLs) in the presence of the indicated peptide in 96-well plates. The MBPCs used are described by the peptides attached, and the number thereof, to a core lysine matrix, which is designated HLC. All amino acids used for this experiment were in dextro form.

[5] = tested on: Peripheral blood lymphocytes (PBL); assay: PBL antigen and mitogen induced proliferation ([3H]thymidine incorporation); format: cell-based, human; details: MBPCs 5×10^-6 M
Procedure: Peripheral blood lymphocytes (PBL) from 3 healthy HIV sero-negative donors were isolated from heparinized blood by the Ficoll-Hypaque technique. The culture medium was RPMI 1640 supplemented with 1% glutamine, 1% antibiotics and 10% heat inactivated fetal calf serum. Cells (10^5) were incubated in the presence of MBPCs (5×10^-6 M) with or without antigen (candidine, PPD) or mitogen (PHA). Antigen or mitogen treated cells were pulsed for eight hours with […] of [3H] thymidine. Then cells were harvested and [3H] thymidine incorporation in DNA was counted. […]

[6] = tested on: HIV-1 (89.6); assay: Infection of and syncytia formation in human primary macrophages; format: cell-based; details: 5×10^-5 M; for inhibition of macrophage infection, in words: 10,000 TCID50
Procedure: MBPCs were also evaluated for their ability to block the infection of human primary macrophages by a highly cytopathic macrophage-tropic isolate, HIV-1 (89.6). Mononuclear cells were isolated from leukophoresis units enriched for monocytes by Ficoll-Hypaque density separation. Macrophages were purified by adherence to plastic in RPMI 1640 supplemented with 10% fetal calf serum and 5% human AB serum. […] 5×10^5 cells were treated for 45 minutes with the indicated MBPC at concentrations of 5×10^-5 M and subsequently exposed to 10,000 TCID50 of the macrophage-tropic isolate HIV (89.6). […] After thorough washing, the cells were fed again with medium and analyzed for HIV-1 p24^gag production and syncytia formation 4 days post-infection.

[7] = tested on: rabbits; assay: ELISA of sera from rabbits immunized with MBPC.1 or MBPC.2; format: in vivo, rabbit; details: for reactivity of sera from rabbits immunized with the MBPC (ELISA, FIG. 6): against MBPC.1, MBPC.2, Mono.1 and V3 Cons; for antibody response in rabbits: rabbit, in vivo
Procedure: Sera from rabbits immunized with either MBPC.1 or MBPC.2 were tested in ELISA for their ability to bind MBPC.1, MBPC.2, Mono.1 (the monomeric form of MBPC.1) and the North American/European consensus V3 sequence (V3 Cons, or Cs).
In another set of experiments, sera from rabbits immunized with either MBPC.1 or MBPC.2 were tested (at 1/100 and 1/1000 dilutions) against various concentrations of MBPC.1, MBPC.2 and V3 Cons. FIGS. 7A, 7B and 7C clearly indicate that sera from rabbits immunized with MBPC.2 reacted in a dose dependant manner against MBPC.2 and V3 Cons. No reactivity against MBPC.1 was detected.

[8] = tested on: HIV; assay: Inhibition of syncytia formation induced by HIV (summary statements); format: cell-based
Procedure: as §1

Row | Substance | Syncytia formation ([1]; MBPC Conc. 5 × 10^-6 M) | Syncytia formation ([1]; MBPC Conc. 10^-6 M) | Syncytia formation ([1]; MBPC Conc. 10^-7 M) | Syncytia formation ([2]; MBPC Conc. 5 × 10^-6 M) | Syncytia formation ([2]; MBPC Conc. 10^-6 M) | Syncytia formation ([2]; MBPC Conc. 10^-7 M) | Syncytia formation ([3]; MBPC Conc. 5 × 10^-6 M) | Syncytia formation ([3]; MBPC Conc. 10^-6 M) | Syncytia formation ([3]; MBPC Conc. 10^-7 M) | number of syncytia (HIV-1 induced cell fusion) ([4]; 5 × 10^-6 M) | number of syncytia (HIV-1 induced cell fusion) ([4]; 5 × 10^-7 M) | [3H] Thymidine Incorporation ([5]; Donor 1, Cand1) [cpm] | [3H] Thymidine Incorporation ([5]; Donor 1, Cand2) [cpm] | [3H] Thymidine Incorporation ([5]; Donor 1, PPD1) [cpm] | [3H] Thymidine Incorporation ([5]; Donor 1, PPD2) [cpm] | [3H] Thymidine Incorporation ([5]; Donor 2, Cand1) [cpm] | [3H] Thymidine Incorporation ([5]; Donor 2, Cand2) [cpm] | [3H] Thymidine Incorporation ([5]; Donor 2, PHA1) [cpm] | [3H] Thymidine Incorporation ([5]; Donor 2, PHA2) [cpm] | [3H] Thymidine Incorporation ([5]; Donor 2, PPD1) [cpm] | also measured
1 | (GPGRAF)8 -(K)4 -(K)2 -K-βA-OH [MBPC.3] | - | + | ++++ | - | + | +++ | - | - | + | - (- indicates the total absence of syncytia in the well) | ± | 87000 | 100000 | 1300 | 3100 | 17000 | 11000 | 87000 | 95000 | 24000 | number of syncytia (HIV-1 induced cell fusion) ([4]; 5 × 10^-5 M): - (- indicates the total absence of syncytia in the well); inhibition of syncytia formation, in words ([4]; 5×10^-7 M): marked inhibition of syncytia formation; [3H] Thymidine Incorporation ([5]; Donor 2, PPD2): 27000 cpm; [3H] Thymidine Incorporation ([5]; Donor 3, Cand1): 3200 cpm; [3H] Thymidine Incorporation ([5]; Donor 3, Cand2): 1200 cpm; [3H] Thymidine Incorporation ([5]; Donor 3, PHA1): 162000 cpm; [3H] Thymidine Incorporation ([5]; Donor 3, PHA2): 154000 cpm; [3H] Thymidine Incorporation ([5]; Donor 3, PPD1): 3900 cpm; [3H] Thymidine Incorporation ([5]; Donor 3, PPD2): 3100 cpm; inhibition of macrophage infection, in words [6]: able to inhibit infection; giant cells (syncytia) in macrophage cultures ([6]; pretreated, 4 days post-infection): very few giant cells; reactivity of sera from rabbits immunized with the MBPC (ELISA, FIG. 6) [7]: did not react against MBPC.1 (except for a weak reactivity of the serum from rabbit A); antibody response in rabbits [7]: did not induce a significant antibody response; MBPC concentration with which inhibiting effect on syncytia formation was observed in vitro [8]: around 10^-6 M
2 | (RKSIHIGPGRAFYT)4 -(K)2 -K-βA-OH (also: four copies on lysine core (K)2-K-βA-OH) [MBPC.5, tetradecapeptide MBPC] | - | + | ++++ | - | ++ | ++++ | - | - | + | - (- indicates the total absence of syncytia in the well) | +++ | 80000 | 85000 | 1300 | 2100 | 15000 | 9000 | 115000 | 111000 | 24000 | inhibition of syncytia formation, in words ([4]; 5×10^-6 M): able to inhibit syncytia formation; [3H] Thymidine Incorporation ([5]; Donor 2, PPD2): 26000 cpm; [3H] Thymidine Incorporation ([5]; Donor 3, Cand1): 3700 cpm; [3H] Thymidine Incorporation ([5]; Donor 3, Cand2): 1100 cpm; [3H] Thymidine Incorporation ([5]; Donor 3, PHA1): 228000 cpm; [3H] Thymidine Incorporation ([5]; Donor 3, PHA2): 188000 cpm; [3H] Thymidine Incorporation ([5]; Donor 3, PPD1): 4000 cpm; [3H] Thymidine Incorporation ([5]; Donor 3, PPD2): 2400 cpm; inhibition of macrophage infection, in words [6]: able to inhibit infection; reactivity of sera from rabbits immunized with the MBPC (ELISA, FIG. 6) [7]: recognized significantly MBPC.2 and V3 Cons; antibody response in rabbits [7]: did invoke such a response; inhibiting effect on syncytia formation, in words [8]: inhibiting effect at a slightly higher concentration
